In patent publication US20260365670A1, “EGFR INHIBITORS AND USES THEREOF” (DIZAL (JIANGSU) PHARMACEUTICAL CO., LTD., priority 2022, published 2026):
Like-named read-outs stand apart in the source and are kept apart here.

Columns and labels:
[1] = target: T1, EGFR Exon19Del (Homo sapiens, UniProt P00533, DEL746-750); assay: Inhibition of EGFR Exon19Del biochemical enzymatic activity (HTRF); conditions: EGFR Del19, 1 mM ATP, 1 h, room temperature, read-out: IC50 @Del19
T1 construct: purchased Carna Bio
How it was run: (§1)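 Recombinant kinases phosphorylated 1 μM biotinylated TK substrate with 1 mM ATP in buffer with 5 mM MgCl2, 1 mM MnCl2, 0.01% CHAPS, 1 mM DTT, 0.5% DMSO. Reaction ran 1 h at room temperature, stopped with EDTA-containing detection mix. HTRF 665/615 nm ratio gave IC50 via four-parameter logistic fit.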

[2] = target: T2, EGFR L858R/T790M (Homo sapiens, UniProt P00533, L858R/T790M); assay: Inhibition of EGFR L858R/T790M biochemical enzymatic activity (HTRF); conditions: EGFR L858R-T790M, 1 mM ATP, 1 h, room temperature, read-out: IC50 (nM) @L858R-T790M
T2 construct: purchased Carna Bio
How it was run: as §1

[3] = target: T3, EGFR[T790M/C797S/L858R] (Homo sapiens, UniProt P00533, C797S/L858R/T790M); assay: Inhibition of EGFR[T790M/C797S/L858R] biochemical enzymatic activity (HTRF); conditions: EGFR T790M-C797S-L858R, 1 mM ATP, 1 h, room temperature, read-out: IC50 (nM) @T790M- C797S - L858R
T3 construct: purchased Carna Bio
How it was run: as §1

[4] = target: T4, EGFR wild type (Homo sapiens, UniProt P00533); assay: Inhibition of EGFR wild type biochemical enzymatic activity (HTRF); conditions: EGFR WT, 1 mM ATP, 1 h, room temperature, read-out: IC50 (nM) @WT
T4 construct: purchased Carna Bio
How it was run: as §1

[5] = target: T5, EGFR L858R (Homo sapiens, UniProt P00533, L858R); assay: Inhibition of EGFR L858R biochemical enzymatic activity (HTRF); conditions: 1 mM ATP, 1 h, room temperature, read-out: IC50 (nM) @L858R
T5 construct: purchased Carna Bio
How it was run: as §1

[6] = system: A-431; assay: Cell proliferation GI50, A-431 cells (Table 6); format: cell-based
[7] = target: T6, EGFR (C797S L858R) (Homo sapiens, UniProt P00533, C797S/L858R); assay: Inhibition of EGFR (C797S L858R) biochemical enzymatic activity (HTRF); conditions: EGFR L858-C797S, 1 mM ATP, 1 h, room temperature, read-out: IC50 (nM) @L858-C797S
T6 construct: purchased signalchem
How it was run: as §1

[8] = system: PC-9; assay: Cell proliferation assay, PC-9 cells (CellTiter-Glo, 72 hours); format: cell-based; conditions: PC9 cells, CellTiter-Glo, read-out: PC9 GI50
How it was run: (§2)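 Ba/F3 cells carrying EGFR mutants (5000/well) or PC-9 cells (500/well) in RPMI1640 were dosed with compound series after overnight attachment and grown 72 h. Viability read by CellTiter-Glo, with day-0 counts subtracted; GI50 from curve fits of % proliferation versus DMSO control.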

[9] = target: T7, EGFR Exon19Del/T790M (Homo sapiens, UniProt P00533, DEL746-750/T790M); assay: Inhibition of EGFR Exon19Del/T790M biochemical enzymatic activity (HTRF); conditions: EGFR Del19-T790M, 1 mM ATP, 1 h, room temperature, read-out: IC50 (nM) @Del19-T790M
T7 construct: purchased Carna Bio
How it was run: as §1

[10] = target: T8, EGFR[T790M/C797S/d746-750] (Homo sapiens, UniProt P00533, C797S/DEL746-750/T790M); assay: Inhibition of EGFR[T790M/C797S/d746-750] biochemical enzymatic activity (HTRF); conditions: EGFR T790M-C797S-Del19, 1 mM ATP, 1 h, room temperature, read-out: IC50 (nM) @T790M - C797S - Del19
T8 construct: purchased Carna Bio
How it was run: as §1

[11] = system: Ba/F3 cells expressing EGFR mutations; assay: Cell proliferation assay, Ba/F3 cells expressing EGFR mutations (CellTiter-Glo, 72 hours); format: cell-based; conditions: CellTiter-Glo
How it was run: as §2

[12] = target: T9, EGFR (d746-750 C797S) (Homo sapiens, UniProt P00533, C797S/DEL746-750); assay: Inhibition of EGFR (d746-750 C797S) biochemical enzymatic activity (HTRF); conditions: EGFR Del19-C797S, 1 mM ATP, 1 h, room temperature, read-out: IC50 (nM) @Del19-C797S
T9 construct: purchased signalchem
How it was run: as §1

[13] = BaF3 cells, EGFR DEL19-C797S, read-out: DEL19-C797S/BaF3 GI50
[14] = BaF3 cells, EGFR DEL19-T790-C797S, read-out: DEL19-T790-C797S/BaF3 GI50
[15] = BaF3 cells, EGFR L858R, read-out: L858R/BaF3 GI50
[16] = BaF3 cells, EGFR L858R-C797S, read-out: L858R-C797S/BaF3 GI50
[17] = BaF3 cells, EGFR L858R-T790-C797S, read-out: L858R-T790-C797S/BaF3 GI50
[18] = BaF3 cells, EGFR L858R-T790M, read-out: L858R-T790M/BaF3 GI50
[19] = EGFR DEL19-T790M, read-out: DEL19-T790M GI50

T4 sequence (P00533 25-1210): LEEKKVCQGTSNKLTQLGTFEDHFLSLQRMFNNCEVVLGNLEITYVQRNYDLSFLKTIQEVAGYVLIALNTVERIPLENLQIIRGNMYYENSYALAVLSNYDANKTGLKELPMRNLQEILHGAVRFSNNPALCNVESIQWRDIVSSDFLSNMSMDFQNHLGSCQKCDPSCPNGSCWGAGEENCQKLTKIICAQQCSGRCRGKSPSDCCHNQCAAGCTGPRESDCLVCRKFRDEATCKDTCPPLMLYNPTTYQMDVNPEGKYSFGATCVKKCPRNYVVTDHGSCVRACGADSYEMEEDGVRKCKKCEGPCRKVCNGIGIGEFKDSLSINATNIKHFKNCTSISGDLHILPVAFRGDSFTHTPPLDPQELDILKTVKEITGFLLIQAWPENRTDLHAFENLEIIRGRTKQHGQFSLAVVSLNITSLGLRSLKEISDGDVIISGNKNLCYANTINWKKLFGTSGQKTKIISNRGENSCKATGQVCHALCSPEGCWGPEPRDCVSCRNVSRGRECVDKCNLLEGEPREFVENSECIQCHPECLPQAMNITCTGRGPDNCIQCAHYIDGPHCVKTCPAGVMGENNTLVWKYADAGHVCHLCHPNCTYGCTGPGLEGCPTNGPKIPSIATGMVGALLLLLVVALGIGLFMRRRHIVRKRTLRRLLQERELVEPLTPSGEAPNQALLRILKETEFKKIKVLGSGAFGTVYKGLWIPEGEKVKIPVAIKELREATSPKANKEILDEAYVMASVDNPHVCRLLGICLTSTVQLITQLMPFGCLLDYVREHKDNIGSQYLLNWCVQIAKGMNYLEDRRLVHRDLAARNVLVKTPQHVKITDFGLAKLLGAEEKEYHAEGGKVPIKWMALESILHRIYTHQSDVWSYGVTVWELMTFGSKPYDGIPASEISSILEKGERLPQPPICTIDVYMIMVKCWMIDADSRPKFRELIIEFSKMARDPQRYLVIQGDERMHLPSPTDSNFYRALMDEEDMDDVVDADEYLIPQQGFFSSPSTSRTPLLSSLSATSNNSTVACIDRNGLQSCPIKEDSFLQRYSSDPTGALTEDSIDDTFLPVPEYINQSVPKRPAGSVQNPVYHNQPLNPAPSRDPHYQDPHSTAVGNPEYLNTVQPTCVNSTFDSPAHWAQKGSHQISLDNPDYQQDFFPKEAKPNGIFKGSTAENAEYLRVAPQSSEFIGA
T1 sequence (P00533 with tags, fused parts or gaps DEL746-750 limits assumed): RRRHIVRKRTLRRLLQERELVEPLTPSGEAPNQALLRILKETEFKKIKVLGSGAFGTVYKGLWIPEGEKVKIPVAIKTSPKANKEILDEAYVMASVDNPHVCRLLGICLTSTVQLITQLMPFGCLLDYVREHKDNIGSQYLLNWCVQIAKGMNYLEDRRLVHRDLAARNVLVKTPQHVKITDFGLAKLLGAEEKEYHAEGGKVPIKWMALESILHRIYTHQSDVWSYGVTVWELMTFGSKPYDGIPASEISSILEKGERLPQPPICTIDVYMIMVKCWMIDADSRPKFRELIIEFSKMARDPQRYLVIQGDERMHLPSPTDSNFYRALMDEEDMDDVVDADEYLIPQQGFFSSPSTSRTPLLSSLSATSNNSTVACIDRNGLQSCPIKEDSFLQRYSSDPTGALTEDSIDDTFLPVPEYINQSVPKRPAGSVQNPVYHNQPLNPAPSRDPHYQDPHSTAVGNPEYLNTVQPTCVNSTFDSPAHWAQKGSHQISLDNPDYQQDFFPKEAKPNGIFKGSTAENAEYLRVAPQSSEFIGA
T7 sequence (P00533 with tags, fused parts or gaps DEL746-750/T790M limits assumed): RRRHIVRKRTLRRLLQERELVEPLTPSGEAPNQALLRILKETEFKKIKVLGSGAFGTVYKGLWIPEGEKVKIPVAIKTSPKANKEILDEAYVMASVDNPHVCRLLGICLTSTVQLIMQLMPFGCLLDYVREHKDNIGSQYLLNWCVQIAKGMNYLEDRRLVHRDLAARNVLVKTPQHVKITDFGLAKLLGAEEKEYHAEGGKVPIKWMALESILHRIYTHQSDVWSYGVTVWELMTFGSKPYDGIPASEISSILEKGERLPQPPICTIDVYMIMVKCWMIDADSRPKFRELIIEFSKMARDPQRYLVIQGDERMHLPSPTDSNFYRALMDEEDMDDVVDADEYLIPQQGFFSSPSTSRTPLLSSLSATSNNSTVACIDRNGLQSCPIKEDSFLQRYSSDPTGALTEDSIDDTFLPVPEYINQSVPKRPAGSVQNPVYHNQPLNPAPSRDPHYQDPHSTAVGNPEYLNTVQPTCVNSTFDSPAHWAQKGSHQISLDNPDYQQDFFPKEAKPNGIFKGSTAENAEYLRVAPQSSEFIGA
T8 sequence (P00533 with tags, fused parts or gaps DEL746-750/T790M/C797S limits assumed): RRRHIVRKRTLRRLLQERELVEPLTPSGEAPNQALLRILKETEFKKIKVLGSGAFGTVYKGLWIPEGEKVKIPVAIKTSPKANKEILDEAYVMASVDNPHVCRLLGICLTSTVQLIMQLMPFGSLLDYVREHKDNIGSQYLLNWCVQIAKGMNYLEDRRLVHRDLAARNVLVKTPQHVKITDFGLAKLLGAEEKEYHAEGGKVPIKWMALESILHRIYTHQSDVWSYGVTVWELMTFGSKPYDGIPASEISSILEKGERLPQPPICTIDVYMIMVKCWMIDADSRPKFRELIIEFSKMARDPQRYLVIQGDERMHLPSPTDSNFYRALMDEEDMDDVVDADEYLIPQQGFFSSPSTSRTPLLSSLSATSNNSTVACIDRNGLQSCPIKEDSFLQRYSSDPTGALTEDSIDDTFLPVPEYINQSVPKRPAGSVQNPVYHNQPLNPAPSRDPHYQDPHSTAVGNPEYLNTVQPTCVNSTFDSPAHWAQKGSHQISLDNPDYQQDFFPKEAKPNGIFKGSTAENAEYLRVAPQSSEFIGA
T6 sequence (P00533 25-1210 C797S/L858R): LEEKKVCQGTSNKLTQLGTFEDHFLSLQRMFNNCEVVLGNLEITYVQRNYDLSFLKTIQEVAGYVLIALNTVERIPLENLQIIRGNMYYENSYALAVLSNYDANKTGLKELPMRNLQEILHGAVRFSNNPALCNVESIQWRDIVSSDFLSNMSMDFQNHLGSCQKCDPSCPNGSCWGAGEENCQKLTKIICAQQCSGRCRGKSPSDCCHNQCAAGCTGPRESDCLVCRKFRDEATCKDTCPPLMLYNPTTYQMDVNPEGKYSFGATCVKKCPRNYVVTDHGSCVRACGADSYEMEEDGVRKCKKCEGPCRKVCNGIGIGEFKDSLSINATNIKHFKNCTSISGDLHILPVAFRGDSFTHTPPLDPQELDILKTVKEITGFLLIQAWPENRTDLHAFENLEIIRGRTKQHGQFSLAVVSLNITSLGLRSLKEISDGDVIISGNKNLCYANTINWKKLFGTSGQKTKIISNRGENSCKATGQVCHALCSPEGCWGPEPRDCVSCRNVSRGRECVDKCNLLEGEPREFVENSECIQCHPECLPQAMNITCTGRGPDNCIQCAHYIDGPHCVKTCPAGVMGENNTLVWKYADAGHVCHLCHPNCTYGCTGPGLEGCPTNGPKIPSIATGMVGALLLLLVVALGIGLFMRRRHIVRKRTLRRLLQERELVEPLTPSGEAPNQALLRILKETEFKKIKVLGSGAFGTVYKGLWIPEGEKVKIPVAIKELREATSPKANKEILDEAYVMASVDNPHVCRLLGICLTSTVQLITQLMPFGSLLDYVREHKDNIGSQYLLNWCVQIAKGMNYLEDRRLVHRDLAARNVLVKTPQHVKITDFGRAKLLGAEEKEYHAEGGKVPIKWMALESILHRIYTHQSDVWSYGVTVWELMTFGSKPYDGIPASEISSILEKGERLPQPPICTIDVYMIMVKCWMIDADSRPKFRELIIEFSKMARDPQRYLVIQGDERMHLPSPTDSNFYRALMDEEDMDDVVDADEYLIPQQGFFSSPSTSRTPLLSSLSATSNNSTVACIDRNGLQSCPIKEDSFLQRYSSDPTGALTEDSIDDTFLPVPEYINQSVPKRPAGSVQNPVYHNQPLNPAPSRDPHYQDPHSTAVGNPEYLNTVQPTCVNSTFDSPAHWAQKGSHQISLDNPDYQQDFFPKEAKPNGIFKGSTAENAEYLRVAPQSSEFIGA
T9 sequence (P00533 with tags, fused parts or gaps DEL746-750/C797S limits assumed): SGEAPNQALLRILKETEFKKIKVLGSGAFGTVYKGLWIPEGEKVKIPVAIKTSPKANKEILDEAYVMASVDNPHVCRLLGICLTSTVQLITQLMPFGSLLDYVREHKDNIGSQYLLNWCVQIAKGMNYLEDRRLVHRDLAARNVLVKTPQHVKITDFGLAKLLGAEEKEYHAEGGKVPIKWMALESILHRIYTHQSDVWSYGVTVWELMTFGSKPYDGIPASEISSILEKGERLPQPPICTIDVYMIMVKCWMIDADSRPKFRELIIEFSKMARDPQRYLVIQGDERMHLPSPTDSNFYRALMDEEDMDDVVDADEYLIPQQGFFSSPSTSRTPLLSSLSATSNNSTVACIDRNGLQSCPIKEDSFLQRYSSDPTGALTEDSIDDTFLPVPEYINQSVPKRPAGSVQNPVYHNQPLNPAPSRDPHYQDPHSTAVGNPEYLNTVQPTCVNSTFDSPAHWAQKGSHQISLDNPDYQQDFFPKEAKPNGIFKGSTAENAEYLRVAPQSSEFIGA

SMILES | IC50 [1] [nM] | IC50 [2] [nM] | IC50 [3] [nM] | IC50 [4] [nM] | IC50 [5] [nM] | GI50 ([6]; A-431 cells) [nM] | IC50 [7] [nM] | GI50 [8] [nM] | IC50 [9] [nM] | IC50 [10] [nM] | GI50 [11, 13] [nM] | GI50 [11, 14] [nM] | GI50 [11, 15] [nM] | GI50 [11, 16] [nM] | GI50 [11, 17] [nM] | GI50 [11, 18] [nM] | GI50 [11, 19] [nM] | IC50 [12] [nM] | GI50 ([6]; Homo sapiens, A-431, A-431 cells) [nM]
Cn1ncc2c1OCCN1CC3CCC(C3)(C1)n1c(nc3ccc(N4CCC(N5CC(F)C5)C4)cc31)NC(=O)c1cc-2c(=O)n(C)c1 (single isomer, unassigned) [Example A94A, 5-[3-(3-Fluoroazetidin-1-yl)pyrrolidin-1-yl]-15,21-dimethyl-23-oxa-2,9,11,15,20,21,26-heptaazaheptacyclo[24.4.1.1^{1,28}.1^{13,17}.0^{2,10}.0^{3,8}.0^{18,22}]tritriaconta-3,5,7,9,13,17(33),18(22),19-octaene-12,16-dione] | 830 | > 5000 | > 5000 | > 5000 | 4740 | 1660 | > 5000 | 981 | > 5000 | > 5000 | 114 | 254 | 323 | 284 | 539 | 944 | 209 | 1560 | 
Cn1ncc2c1OCCN1CC3CCC(C3)(C1)n1c(nc3ccc(N4CCC(N5CC(F)C5)C4)cc31)NC(=O)c1cc-2c(=O)n(C)c1 (single isomer, unassigned) [Example A94B1, 5-[3-(3-Fluoroazetidin-1-yl)pyrrolidin-1-yl]-15,21-dimethyl-23-oxa-2,9,11,15,20,21,26-heptaazaheptacyclo[24.4.1.1^{1,28}.1^{13,17}.0^{2,10}.0^{3,8}.0^{18,22}]tritriaconta-3,5,7,9,13,17(33),18(22),19-octaene-12,16-dione] | 10 | 8.8 | 5 | 148 | 27 | 1110 | 15 | 16 | 7.1 | 5 | 0.73 | 6.5 | 2 | 6 | 3.9 | 12 | 3 | 3.7 | 
Cn1ncc2c1OCCN1CC3CCC(C3)(C1)n1c(nc3ccc(N4CCC(N5CC(F)C5)C4)cc31)NC(=O)c1cc-2c(=O)n(C)c1 (single isomer, unassigned) [Example A94B2, 5-[3-(3-Fluoroazetidin-1-yl)pyrrolidin-1-yl]-15,21-dimethyl-23-oxa-2,9,11,15,20,21,26-heptaazaheptacyclo[24.4.1.1^{1,28}.1^{13,17}.0^{2,10}.0^{3,8}.0^{18,22}]tritriaconta-3,5,7,9,13,17(33),18(22),19-octaene-12,16-dione] | 8.9 | 9.7 | 9.7 | 289 | 45 | 1980 | 30 | 30 | 6.3 | 5.2 | 0.77 | 8.5 | 3.3 | 7.2 | 5.4 | 14 | 5 | 4.5 | 
Cn1ncc2c1OCCN1CC3CCC(C3)(C1)n1c(nc3ccc(N4CCC(N5CC(F)C5)C4)cc31)NC(=O)c1cc-2c(=O)n(C)c1 (single isomer, unassigned) [Example A94B, 5-[3-(3-Fluoroazetidin-1-yl)pyrrolidin-1-yl]-15,21-dimethyl-23-oxa-2,9,11,15,20,21,26-heptaazaheptacyclo[24.4.1.1^{1,28}.1^{13,17}.0^{2,10}.0^{3,8}.0^{18,22}]tritriaconta-3,5,7,9,13,17(33),18(22),19-octaene-12,16-dione] | 5.2 | 11 | 9.5 | 235 | 29 | 2880 | 20 | 35 | 11 | 8.4 |  | 4.5 | 5.1 |  | 7.7 | 14 | 3.3 | 6.1 | 
CN(C)C1CCN(c2ccc3nc4n(c3c2)C23CCC(CN(CCOc5c(cnn5C)-c5cc(cn(C)c5=O)C(=O)N4)C2)C3)CC1(F)F (single isomer, unassigned) [Example A97A] | 1190 | > 5000 | > 5000 | > 5000 | 3030 | 5790 | 3950 | 763 | > 5000 | > 5000 | 102 | 527 | 129 | 325 | 124 | 1000 | 459 | 850 | 

Now those with a lower IC50 [1], led by results:

IC50 [1] [nM] | IC50 [2] [nM] | IC50 [3] [nM] | IC50 [4] [nM] | IC50 [5] [nM] | GI50 ([6]; A-431 cells) [nM] | IC50 [7] [nM] | GI50 [8] [nM] | IC50 [9] [nM] | IC50 [10] [nM] | GI50 [11, 13] [nM] | GI50 [11, 14] [nM] | GI50 [11, 15] [nM] | GI50 [11, 16] [nM] | GI50 [11, 17] [nM] | GI50 [11, 18] [nM] | GI50 [11, 19] [nM] | IC50 [12] [nM] | GI50 ([6]; Homo sapiens, A-431, A-431 cells) [nM] | SMILES
4.4 | 5.7 | 4.7 | 224 | 14 | 1450 | 8.4 | 24 | 4.9 | 4.8 | 0.76 | 5.6 | 2 | 3 | 3.5 | 13 | 6.4 | 1.7 |  | CN(C)C1CCN(c2ccc3nc4n(c3c2)C23CCC(CN(CCOc5c(cnn5C)-c5cc(cn(C)c5=O)C(=O)N4)C2)C3)CC1(F)F (single isomer, unassigned) [Example A97B]
3.5 | 11 | 10 | 3530 | 94 | 3640 | 59 | 46 | 8.4 | 7.7 | 1.2 | 15 |  | 11 | 4.6 |  | 7.9 | 4.6 |  | CN(C)C1CN(c2ccc3nc4n(c3c2)C23CCC(CN(CCOc5c(cnn5C)-c5cc(cn(C)c5=O)C(=O)N4)C2)C3)CC1(F)F (single isomer, unassigned) [Example A99B]
1.8 | 2.7 | 2.3 | 21 | 3.3 |  | 4.1 | 7.6 | 2.9 | 2.7 | 0.64 | 1.5 | 0.54 | 2.8 | 1.1 | 3 | 1.5 | 1.3 | 280 | CN1C2CC1CN(c1ccc3nc4n(c3c1)C13CCC(CN(CCOc5c(cnn5C)-c5cc(cn(C)c5=O)C(=O)N4)C1)C3)C2 (single isomer, unassigned) [Example A98B]
